In test [1] the test system is T1, Tyrosine-protein phosphatase non-receptor type 1 (Homo sapiens), P18031 [P87C,A122C].
T1 sequence (whole entry): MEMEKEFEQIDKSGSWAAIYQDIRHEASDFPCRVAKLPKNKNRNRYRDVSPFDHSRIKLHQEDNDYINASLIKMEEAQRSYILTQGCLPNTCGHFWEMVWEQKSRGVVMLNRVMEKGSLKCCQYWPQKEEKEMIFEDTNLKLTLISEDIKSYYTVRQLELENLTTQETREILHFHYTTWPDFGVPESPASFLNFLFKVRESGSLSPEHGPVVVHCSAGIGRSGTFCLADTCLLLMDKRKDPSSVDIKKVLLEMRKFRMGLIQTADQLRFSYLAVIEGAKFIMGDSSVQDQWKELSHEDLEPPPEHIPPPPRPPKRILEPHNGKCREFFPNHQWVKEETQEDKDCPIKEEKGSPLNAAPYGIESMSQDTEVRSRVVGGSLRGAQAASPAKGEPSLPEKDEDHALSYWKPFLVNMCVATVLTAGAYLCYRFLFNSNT
The test can be described thus: Inhibition of allosterically sensitized His6-tagged human PTP1B catalytic domain P87C/A122C mutant at 250 nM using pNPP as substrate incubated for 90 mins by quenched phosphatase activity assay.

In test [2] the target is Tyrosine-protein phosphatase non-receptor type 13 (Homo sapiens) (UniProt Q12923). The test can be described thus: Inhibition of allosterically sensitized mutant form of His6-tagged human FAP1 catalytic domain at 500 nM using pNPP as substrate incubated for 90 mins by quenched phosphatase activity assay.
Test [3] has as its target Tyrosine-protein phosphatase non-receptor type 6 (Homo sapiens) (UniProt P29350). Briefly: Inhibition of allosterically sensitized mutant form of His6-tagged human SHP1 catalytic domain at 500 nM using pNPP as substrate incubated for 90 mins by quenched phosphatase activity assay.
Test [4] deals with T2, Tyrosine-protein phosphatase non-receptor type 11 (Homo sapiens) (UniProt Q06124).
T2 sequence (whole entry): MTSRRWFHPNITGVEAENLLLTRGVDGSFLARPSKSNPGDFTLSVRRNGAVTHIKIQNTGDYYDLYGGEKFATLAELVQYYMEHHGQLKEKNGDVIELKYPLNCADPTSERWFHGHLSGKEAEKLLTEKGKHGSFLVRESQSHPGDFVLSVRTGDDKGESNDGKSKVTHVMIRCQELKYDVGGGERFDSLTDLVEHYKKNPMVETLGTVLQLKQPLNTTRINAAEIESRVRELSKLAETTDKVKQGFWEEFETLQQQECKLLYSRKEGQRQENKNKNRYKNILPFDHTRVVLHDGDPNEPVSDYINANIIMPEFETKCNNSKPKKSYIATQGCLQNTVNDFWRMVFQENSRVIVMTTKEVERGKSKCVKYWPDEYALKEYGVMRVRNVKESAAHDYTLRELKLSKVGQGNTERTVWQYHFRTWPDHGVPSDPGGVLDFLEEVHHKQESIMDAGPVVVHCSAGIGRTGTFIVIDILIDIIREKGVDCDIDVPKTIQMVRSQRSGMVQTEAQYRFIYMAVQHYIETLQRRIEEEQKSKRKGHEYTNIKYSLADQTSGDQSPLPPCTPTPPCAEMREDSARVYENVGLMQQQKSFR
The test can be described thus: Inhibition of allosterically sensitized mutant form of His6-tagged human SHP2 containing SHP1 and […] SH2 domain at 500 nM at 500 nM using pNPP as substrate incubated for 90 mins by quenched phosphatase activity assay.

The target of test [5] is Tyrosine-protein phosphatase non-receptor type 1 (Homo sapiens, UniProt P18031, A122C/P87C). The test can be described thus: Inhibition of allosterically sensitized His6-tagged human PTP1B catalytic domain P87C/A122C mutant overexpressed in Escherichia coli crude cell lysate using pNPP as substrate incubated for 90 mins by quenched phosphatase activity assay.
The species named for the next test is Homo sapiens. The test can be described thus: Inhibition of His6-tagged human wild-type PTP catalytic domain at 500 nM using pNPP as substrate incubated for 90 mins by quenched phosphatase activity assay.
The test system of test [6] is T1, Tyrosine-protein phosphatase non-receptor type 1 (Homo sapiens), P18031 [P87C,A122C]. Briefly: Inhibition of allosterically sensitized His6-tagged human PTP1B catalytic domain P87C/A122C mutant at 2000 nM using pNPP as substrate incubated for =.
For test [7], the system named is T3, Tyrosine-protein phosphatase non-receptor type 7 (Homo sapiens), P35236 [P171C,V205C].
T3 sequence (whole entry): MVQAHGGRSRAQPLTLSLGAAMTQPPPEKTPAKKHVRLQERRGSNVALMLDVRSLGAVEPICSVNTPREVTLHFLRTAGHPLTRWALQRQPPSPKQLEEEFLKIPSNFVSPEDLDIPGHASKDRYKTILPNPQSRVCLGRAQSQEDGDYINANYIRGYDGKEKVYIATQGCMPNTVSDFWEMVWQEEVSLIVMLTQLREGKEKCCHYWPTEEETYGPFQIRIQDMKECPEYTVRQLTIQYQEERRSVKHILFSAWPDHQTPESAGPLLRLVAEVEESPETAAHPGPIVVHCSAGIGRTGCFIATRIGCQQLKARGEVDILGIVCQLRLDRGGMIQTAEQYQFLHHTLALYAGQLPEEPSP
Briefly: Inhibition of allosterically sensitized mutant form of His6-tagged human HePTP catalytic domain at 500 nM using pNPP as substrate incubated for 90 mins by quenched phosphatase activity assay.

For test [8], the target named is T2, Tyrosine-protein phosphatase non-receptor type 11 (Homo sapiens). The test can be described thus: Inhibition of allosterically sensitized mutant form of His6-tagged human SHP2 catalytic domain at 500 nM at 500 nM using pNPP as substrate incubated for 90 mins by quenched phosphatase activity assay.
Test [9] deals with T4, Tyrosine-protein phosphatase non-receptor type 7 (Homo sapiens) (UniProt P35236).
T4 sequence (whole entry): T3 sequence (whole entry) with C171P, C205V
Briefly: Inhibition of His6-tagged human wild-type HePTP catalytic domain overexpressed in Escherichia coli BL21(DE3) cells at 100 uM using pNPP as substrate incubated for 90 mins by quenched phosphatase activity assay.

Test [10] concerns the target T4, Tyrosine-protein phosphatase non-receptor type 7 (Homo sapiens). The test can be described thus: Inhibition of His6-tagged human wild-type HePTP catalytic domain overexpressed in Escherichia coli crude cell lysate at 2000 nM using pNPP as substrate incubated for 90 mins by quenched phosphatase activity assay.

Changes are numbered by the printed parent chain. pIC50: −log10 of the molar value. Activity calls are given as the source filed them. The rule behind the calls is not given here.

Usually inhibition stands for the change of the read-out against control, counted positive when it falls. As usually defined, the pIC50 is the IC50 on a negative log10 scale, so that one unit is a factor of ten.

Tyrosine-protein phosphatase non-receptor type 6 (Homo sapiens), sequence (P29350 whole entry, the tested form may be a part): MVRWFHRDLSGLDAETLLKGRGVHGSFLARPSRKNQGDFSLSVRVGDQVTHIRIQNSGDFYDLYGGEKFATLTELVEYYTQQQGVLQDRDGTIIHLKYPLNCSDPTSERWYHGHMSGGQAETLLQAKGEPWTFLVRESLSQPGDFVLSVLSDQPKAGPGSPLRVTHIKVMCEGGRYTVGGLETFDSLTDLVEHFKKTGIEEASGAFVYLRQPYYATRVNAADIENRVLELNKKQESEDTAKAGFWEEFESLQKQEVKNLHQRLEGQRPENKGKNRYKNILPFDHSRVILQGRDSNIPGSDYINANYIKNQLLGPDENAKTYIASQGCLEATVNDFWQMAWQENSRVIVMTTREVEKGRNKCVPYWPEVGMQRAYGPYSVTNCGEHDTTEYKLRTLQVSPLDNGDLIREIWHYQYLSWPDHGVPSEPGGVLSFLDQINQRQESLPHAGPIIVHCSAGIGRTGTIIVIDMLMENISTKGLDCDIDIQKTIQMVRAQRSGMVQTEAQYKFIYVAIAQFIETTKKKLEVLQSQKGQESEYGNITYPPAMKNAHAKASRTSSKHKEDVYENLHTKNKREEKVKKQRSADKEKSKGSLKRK
Tyrosine-protein phosphatase non-receptor type 13 (Homo sapiens), sequence (Q12923 whole entry, the tested form may be a part): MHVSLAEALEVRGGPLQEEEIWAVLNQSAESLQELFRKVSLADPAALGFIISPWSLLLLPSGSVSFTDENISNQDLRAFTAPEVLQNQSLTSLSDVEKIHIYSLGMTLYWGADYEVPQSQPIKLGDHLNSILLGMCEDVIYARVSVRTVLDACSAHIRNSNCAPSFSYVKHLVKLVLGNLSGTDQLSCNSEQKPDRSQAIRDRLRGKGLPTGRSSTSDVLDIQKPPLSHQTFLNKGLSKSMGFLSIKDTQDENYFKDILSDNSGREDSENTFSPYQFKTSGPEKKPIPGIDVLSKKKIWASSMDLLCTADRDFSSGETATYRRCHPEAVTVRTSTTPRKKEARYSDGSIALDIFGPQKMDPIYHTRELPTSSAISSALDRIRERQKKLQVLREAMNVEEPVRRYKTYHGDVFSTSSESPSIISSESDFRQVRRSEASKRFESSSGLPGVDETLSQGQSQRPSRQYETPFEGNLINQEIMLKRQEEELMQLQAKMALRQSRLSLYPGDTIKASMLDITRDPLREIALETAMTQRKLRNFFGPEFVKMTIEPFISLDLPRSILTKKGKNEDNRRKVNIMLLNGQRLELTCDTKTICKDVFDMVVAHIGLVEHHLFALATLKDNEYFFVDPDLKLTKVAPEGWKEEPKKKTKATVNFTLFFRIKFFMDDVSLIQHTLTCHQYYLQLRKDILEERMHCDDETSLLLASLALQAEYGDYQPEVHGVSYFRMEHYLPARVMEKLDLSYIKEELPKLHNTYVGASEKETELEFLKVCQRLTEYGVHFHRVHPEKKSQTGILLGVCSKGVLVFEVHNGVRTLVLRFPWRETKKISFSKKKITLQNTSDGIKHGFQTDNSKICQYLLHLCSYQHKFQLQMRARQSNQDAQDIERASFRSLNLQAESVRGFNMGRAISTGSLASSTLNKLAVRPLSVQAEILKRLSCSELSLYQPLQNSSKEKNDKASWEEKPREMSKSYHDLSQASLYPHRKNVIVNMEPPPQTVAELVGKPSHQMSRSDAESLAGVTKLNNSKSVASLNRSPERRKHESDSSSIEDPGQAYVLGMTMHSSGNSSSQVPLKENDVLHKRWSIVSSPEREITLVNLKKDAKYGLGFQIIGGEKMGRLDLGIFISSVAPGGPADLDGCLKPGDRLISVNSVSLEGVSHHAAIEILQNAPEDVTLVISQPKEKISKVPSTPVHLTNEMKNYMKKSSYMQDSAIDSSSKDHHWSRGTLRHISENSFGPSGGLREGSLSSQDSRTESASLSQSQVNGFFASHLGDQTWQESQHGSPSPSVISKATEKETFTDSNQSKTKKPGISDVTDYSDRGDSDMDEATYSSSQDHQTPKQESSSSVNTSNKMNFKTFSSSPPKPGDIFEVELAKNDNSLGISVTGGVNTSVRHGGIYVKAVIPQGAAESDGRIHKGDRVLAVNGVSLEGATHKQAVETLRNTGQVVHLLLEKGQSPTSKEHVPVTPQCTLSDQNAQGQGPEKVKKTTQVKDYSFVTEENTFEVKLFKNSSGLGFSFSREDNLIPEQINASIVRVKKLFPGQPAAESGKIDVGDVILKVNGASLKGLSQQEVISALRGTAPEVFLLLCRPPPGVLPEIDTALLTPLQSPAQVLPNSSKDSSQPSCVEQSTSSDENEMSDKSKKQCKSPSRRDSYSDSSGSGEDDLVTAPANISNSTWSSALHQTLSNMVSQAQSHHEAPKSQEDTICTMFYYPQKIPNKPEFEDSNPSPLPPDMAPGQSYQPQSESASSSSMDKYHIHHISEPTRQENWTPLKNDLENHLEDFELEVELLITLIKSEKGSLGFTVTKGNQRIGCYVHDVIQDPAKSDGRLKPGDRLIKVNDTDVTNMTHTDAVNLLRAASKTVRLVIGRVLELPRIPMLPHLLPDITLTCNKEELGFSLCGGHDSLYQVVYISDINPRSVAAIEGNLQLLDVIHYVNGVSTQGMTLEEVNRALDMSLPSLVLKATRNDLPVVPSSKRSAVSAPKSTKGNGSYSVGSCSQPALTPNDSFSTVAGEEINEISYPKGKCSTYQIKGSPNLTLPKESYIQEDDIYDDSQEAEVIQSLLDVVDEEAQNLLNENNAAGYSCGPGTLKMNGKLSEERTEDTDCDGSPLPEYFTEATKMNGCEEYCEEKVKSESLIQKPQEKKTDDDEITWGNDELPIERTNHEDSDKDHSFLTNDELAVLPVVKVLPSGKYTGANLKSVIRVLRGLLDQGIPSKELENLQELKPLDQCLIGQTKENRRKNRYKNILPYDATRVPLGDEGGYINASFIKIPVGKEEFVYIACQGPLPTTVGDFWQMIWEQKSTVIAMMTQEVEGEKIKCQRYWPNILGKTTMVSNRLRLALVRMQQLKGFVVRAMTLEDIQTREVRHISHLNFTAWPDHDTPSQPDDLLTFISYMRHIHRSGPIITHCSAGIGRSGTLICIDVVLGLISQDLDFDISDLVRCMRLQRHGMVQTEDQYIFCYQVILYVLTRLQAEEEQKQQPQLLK

In the case of `CC1(C)C(/C=C/C=C2/N(CCCCS(=O)(=O)O)c3ccc([As]4SCCS4)cc3C2(C)C)=[N+](CCCCS(=O)(=O)O)c2ccc([As]3SCCS3)cc21`, the values for the inhibition in [1] and in test [6] were 70% and 50%, respectively. Also, the inhibition entry (in test [2]; in test [3]; in the test filed under Homo sapiens) was “Active” in each case. In addition, the inhibition entry in test [4], in [7] and in test [8] was “inactive” each time. Besides, the negative-log IC50 (pIC50) in test [5] was 6.90.
Take `O=C(O)c1ccccc1-c1c2ccc(=O)c([As]3SCCS3)c-2oc2c([As]3SCCS3)c(O)ccc12`: the inhibition entry (in test [1]; in test [2]; in test [3]; in test [4]; in the test filed under Homo sapiens; in test [7]) was “Active” throughout. Further, the inhibition entry in test [8] is “Active”. The inhibition entry in test [9] and in test [10] was “inactive” throughout.
